This passage reports RP-LC retention time results from the METLIN SMRT retention time set (Domingo-Almenara et al. 2019).

SMILES strings stand for the structures.

The data set in a line: gradient 5% acetonitrile 3 min, to 50% in 2 min, to 85% in 15 min, held 3 min, 100 µL/min. Particulars: column: Zorbax Extend-C18 2.1 x 50 mm; eluents: water / acetonitrile, 0.1% formic acid. In outline:
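The system's dead and dwell volumes were 40 μL and 900 μL, with a Zorbax Extend-C18 column (2.1 × 50 mm, 1.8 μm) run at 100 μL/min in water and acetonitrile containing 0.1% formic acid each. Pure standards were analyzed in mixtures of ~100 molecules by HPLC–quadrupole time-of-flight mass spectrometry in positive and negative ionization mode. Retention time was assigned from computationally picked, manually inspected adduct peaks.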
In the case of `Cc1ccc(NC(=O)COc2cc(C)nc(N3CCN(c4ccccc4)CC3)n2)cc1`, the RP-LC retention time worked out at 852 s.
`O=C(O)CCC1CCN(S(=O)(=O)c2ccccc2F)CC1` gave an RP-LC retention time of 751 s.
The figure for `Cc1cnc(C2CCOCC2)n1C1CCCN(S(=O)(=O)Cc2ccccc2)C1` (stereo unspecified) is 646 s.
`Cc1nnc(N2CCCC(C(=O)NCCc3ccccc3)C2)c2nn(-c3ccc(Cl)cc3)c(C)c12` (stereo unspecified) registered an RP-LC retention time of 789 s.
Turning to `CC1CCCCN1CCCNC(=O)Cn1c2ccccc2c2cnn(C)c(=O)c21` (stereo unspecified), the RP-LC retention time turned out to be 600 s.
The figure for `O=C(NCC1(N2CCOCC2)CCOC1)Nc1cc(Cl)cc(Cl)c1` (stereo unspecified) is 657 s; for `O=C(NCCN1CCN(C(=O)c2cc(=O)c3ccccc3o2)CC1)c1ccsc1` it is 557 s; for `CN1C(=O)c2ccccc2Oc2ccc(C(=O)N3CCCCC3)cc21` it is 807 s.
The figure for `COCCc1noc(C2CN(C(=O)Cn3ccnc3)C2)n1` is 580 s.
As for `Cc1cccc(-n2cc(C(=O)OCc3cc(=O)n4ccccc4n3)c3ccccc3c2=O)c1`, the RP-LC retention time stood at 906 s.
The figure for `CCn1c(=O)c2ccccc2n(Cc2nc(-c3cccc(OC)c3)no2)c1=O` is 992 s.
The figure for `NS(=O)(=O)c1ccc(-n2nc(C(F)(F)F)cc2-c2ccc(Cl)cc2)cc1` is 959 s; for `COc1ccc(-c2ncc3c(n2)CCN(S(=O)(=O)c2cccc4cccnc24)C3)cc1` it is 935 s.
`Cn1cc(CCN2CCC(C(=O)NCc3cccs3)CC2)c2cccnc21` registered an RP-LC retention time of 595 s.
The same measure for `O=C(Nc1ccc(N2CCOCC2)cc1)C1=CCN(Cc2ccc(F)cc2)CC1`: 603 s; for `CCN(CC)C(=O)C1CCCN1S(=O)(=O)c1cc2c(cc1C)NC(=O)C(C)O2` (stereo unspecified): 714 s.
In the case of `CN1CCC2(CC1)CN(C(=O)Cn1c(=O)oc3ccccc31)Cc1ccccc1O2`, the RP-LC retention time was 644 s.
Compound `COc1ccc(CNC(=O)Cn2cnc3nc(N4CCCC(C(=O)NC5CC5)C4)sc3c2=O)cc1` (stereo unspecified) had an RP-LC retention time of 655 s.
The same measure for `Cc1cccc(CN2CCCn3nc(C(=O)NCCc4ccco4)cc3C2=O)c1`: 870 s.
The same measure for `O=C(NCc1cccnc1)c1c2c(nc3ccccc13)C(=O)N(C1CCCCC1)C2`: 612 s; for `COc1ccc(CC(=O)N2CCC3(C2)C(=O)N(C)c2ccccc23)cc1` (stereo unspecified): 782 s; for `CN(C)c1ccc(CNC(=O)c2cc3n(n2)CC(C)(C(=O)NCc2ccc(F)cc2)N(C)C3=O)cc1` (stereo unspecified): 610 s.
With `CC(NC(=O)C1(c2ccc(NS(C)(=O)=O)cc2)CCCCC1)c1ccc(F)cc1` (stereo unspecified), the RP-LC retention time amounted to 952 s.
The same measure for `COc1ccc(C(=O)N2CCn3c(C)nnc3C2)cc1F`: 593 s; for `COc1cccc(CN2CC(c3nc(CCOCc4ccccc4)no3)C2)c1`: 708 s.
`COc1ccc(-c2nnc(CC(=O)NCC3CCCO3)o2)cc1` (stereo unspecified) had an RP-LC retention time of 650 s.
The same measure for `Cc1ccc(-n2ccnc2SCc2nc(-c3cccc(Br)c3)no2)cc1`: 1080 s.
The same measure for `CN(CC1CCOCC1)C(=O)c1cc(F)cc(F)c1`: 725 s.
The compound `Cc1cc2c(cc1S(=O)(=O)N1CCCC1C(=O)Nc1cccc(C)c1C)OCC(=O)N2` (stereo unspecified) gave an RP-LC retention time of 789 s.
Regarding `COC[C@@H]1CN(c2ncccn2)C[C@H]1C(=O)N(C)Cc1ccco1`, the RP-LC retention time was determined as 619 s.
The same measure for `CNC(=O)c1cc(-c2cccc(OC)c2)n[nH]1`: 665 s; for `CCOC(=O)CC(=O)CSc1nc2ccsc2c(=O)n1Cc1ccc(F)cc1`: 903 s.
`COc1ccc(C)cc1NC(=O)C1CCN(S(=O)(=O)c2ccc3c(c2)sc(=O)n3C)CC1` displayed an RP-LC retention time of 827 s.
The figure for `CC(NC(=O)c1cccnc1)c1nc(-c2ccccc2)no1` (stereo unspecified) is 694 s.
The figure for `Cc1ccc(-c2nnc(-c3cccc(S(=O)(=O)N4CCN(C)CC4)c3)o2)cc1` is 679 s; for `CC1=C(c2ccc(C)cc2)S(=O)(=O)N=C1N1CCCN(C(=O)c2cccc(C#N)c2)CC1` it is 885 s.
In turn, `Cc1ccccc1NC(=O)N(C)CCc1noc(COc2ccccc2)n1` showed an RP-LC retention time of 869 s.
The figure for `CCN1CCC2(CC1)N=C(c1ccc(Br)cc1)CC(c1cccc(OC)c1O)N2` (stereo unspecified) is 618 s; for `CC(=O)NCc1ccc(-c2noc(Cc3ccc(Br)cc3)n2)s1` it is 890 s; for `CCc1nc2cc(-c3noc(C4(c5ccc(OC)cc5)CC4)n3)ccc2o1` it is 690 s.
Regarding `O=C(C1CCCCC1)N1CCC(c2noc(CO)n2)C1` (stereo unspecified), the RP-LC retention time is 656 s.
In the case of `CC1=C(c2ccc(F)cc2)S(=O)(=O)N=C1N1CCCN(C(=O)NCCC(C)C)CC1`, the RP-LC retention time is 837 s.
The same measure for `CC(=O)N1CCC(C2CCN(Cc3ccc(Br)s3)C2)CC1` (stereo unspecified): 603 s; for `CCOc1ccccc1-c1noc(Cn2c(=O)n(Cc3ccc(F)cc3)c(=O)c3sccc32)n1`: 1100 s; for `CC(C)C(=O)Nc1ccc(-n2cnc(C(=O)NC(C)c3ccc(F)cc3)c2)nc1` (stereo unspecified): 777 s.
The figure for `O=C(NCCc1c[nH]c2ccccc12)C(=O)NCc1cccs1` is 783 s; for `CC(=O)c1cccc(NC(=O)CCc2c(C)nn(-c3cc(N4CCCC4)ncn3)c2C)c1` it is 765 s; for `Cc1ccc(C(=O)NC(C)CCc2ccccc2)cc1NC(=O)C1=CSCCO1` (stereo unspecified) it is 955 s.
The same measure for `COc1ccccc1NC(=O)N1CCC(CNC(=O)c2cc(Cl)ccc2Cl)CC1`: 811 s; for `COC(=O)c1ccc2c(c1)N(Cc1cccc(F)c1)C(=O)CS2=O` (stereo unspecified): 744 s; for `COc1ccc2[nH]cc(CCNC(=O)c3ccc(F)cc3)c2c1`: 778 s.
`Cc1nnc2ccc(-c3noc(Cc4ccc(F)cc4)n3)cn12` showed an RP-LC retention time of 805 s.
`Cc1ccccc1NC(=O)C1CCCN(S(=O)(=O)c2cn(C(C)C)cn2)C1` (stereo unspecified) had an RP-LC retention time of 726 s.
On to `COC(=O)c1ccc2c(=O)n(-c3cccc(Cl)c3)c(N3CCSC3)nc2c1`, for which the RP-LC retention time was 1110 s.
For the compound `O=C(NCC1(N2CCOCC2)CCOC1)Nc1ccccc1` (stereo unspecified), the RP-LC retention time is 572 s.
The same measure for `Cc1ccc(C(O)Cn2ccn3nc(-c4ccc(F)cc4)cc3c2=O)cc1C` (stereo unspecified): 1020 s.
The figure for `COc1cccc(-c2noc(C3CCCN3C(=O)Nc3ccc(OC)cc3C)n2)c1` (stereo unspecified) is 900 s.
In turn, `COc1ccc2c(c1)CCN(C(=O)c1csc(-n3cccc3)n1)C2` yielded an RP-LC retention time of 895 s.
The figure for `COc1cccc(S(=O)(=O)N2CC(F)(F)C[C@H]2c2nnc(C)o2)c1` is 785 s; for `O=C(Nc1ccccc1)C1CCCN(c2ncnc3c2oc2ccccc23)C1` (stereo unspecified) it is 798 s; for `N#Cc1cccc(-c2cn3c(n2)N(C(=O)Cc2ccsc2)CCC3)c1` it is 822 s.
Regarding `CN(C)c1ccc(N2C=C(C(=O)N3CCOCC3)S(=O)(=O)c3ccc(F)cc32)cc1`, the RP-LC retention time is 828 s.
For the compound `CSc1cccc2sc(Nc3nc(C)c(C(C)=O)s3)nc12`, the RP-LC retention time was 842 s.
For `Cc1nc(-c2ccc(C(=O)NC3CCCCC3)cc2)cs1`, the RP-LC retention time worked out at 900 s.
As to `CCOc1cccc(C2CC(=O)NC3=C2C(=O)C(C(=O)OC)C(C)C3)c1` (stereo unspecified), the RP-LC retention time came out at 750 s.
The figure for `Cc1ccc(NC(=O)N2CCCC(C)(C(=O)NCc3ccccc3C)C2)c(C)c1` (stereo unspecified) is 1000 s; for `O=C1CCc2cc(NC(=O)c3cc(-c4ccccc4)nc4ccccc34)ccc2N1` it is 818 s.
Compound `Cc1ccc(Cl)cc1NC(=O)N(C)CC1CCOC1` (stereo unspecified) had an RP-LC retention time of 757 s.
The same measure for `CCOC(=O)C1CCN(C(=O)CCc2cc3cc(OC)ccc3[nH]c2=O)CC1`: 701 s.
The same measure for `CN(CCNC(=O)C1c2ccccc2C(=O)N(C)C1c1cccs1)C1CCCCC1` (stereo unspecified): 706 s.
Compound `CCCn1c(CCc2cccc(NS(=O)(=O)c3cnn(CC)c3)c2)nc2ccccc21` yielded an RP-LC retention time of 675 s.
Regarding `O=C(Cn1ncc2c(N3CCN(c4ccccn4)CC3)ncnc21)Nc1ccc(F)cc1F`, the RP-LC retention time was 615 s.
The figure for `COc1ccc(C(C)NC(=O)C2CC(=O)N(c3ccc4c(c3)CCN4C(C)=O)C2)cc1` (stereo unspecified) is 688 s.
`CCCn1ccc2sc(C)c(C(=O)N3CCCCC3)c2c1=O` showed an RP-LC retention time of 760 s.
`O=C1c2ccccc2C(=O)c2[nH]cnc21`: the RP-LC retention time was found to be 661 s.
The same measure for `CCn1cc(S(=O)(=O)N2CCCC(n3c(C)cnc3-c3ccccc3)C2)cn1` (stereo unspecified): 639 s; for `O=C(C1CC1)N1CCC(F)(C(=O)NCC2CC2)CC1`: 631 s.
The same measure for `Cn1c(=O)n(CC(=O)NC2CCCCC2)c(=O)c2cnc(-c3ccc(Cl)cc3)nc21`: 1070 s.
The figure for `CCOc1ccccc1NC(=O)N1CCN(CCn2c(C(C)C)nc3cccnc32)CC1` is 617 s.
The compound `CCCN1CCN(C(=O)c2ccc(CN3CCN(Cc4ccccc4)C(=O)C3=O)cc2)CC1` came in with an RP-LC retention time of 811 s.
In turn, `COc1ccc2sc(NCc3cccnc3)nc2c1` gave an RP-LC retention time of 556 s.
